IC50 data for 15 compounds are collected here from EP0915086A1, “PHENYLSULFONAMIDE DERIVATIVES” (ONO PHARMACEUTICAL CO., LTD., priority 1996, dated 1997).

Counter-ions that a name gives are not always drawn.

The target of one test is T1, gelatinase A (Homo sapiens, UniProt P08253).
T1 construct: endogenous in cells; host or cells: human normal skin dermal fibroblasts (HNDF)
T1 sequence (P08253 110-660): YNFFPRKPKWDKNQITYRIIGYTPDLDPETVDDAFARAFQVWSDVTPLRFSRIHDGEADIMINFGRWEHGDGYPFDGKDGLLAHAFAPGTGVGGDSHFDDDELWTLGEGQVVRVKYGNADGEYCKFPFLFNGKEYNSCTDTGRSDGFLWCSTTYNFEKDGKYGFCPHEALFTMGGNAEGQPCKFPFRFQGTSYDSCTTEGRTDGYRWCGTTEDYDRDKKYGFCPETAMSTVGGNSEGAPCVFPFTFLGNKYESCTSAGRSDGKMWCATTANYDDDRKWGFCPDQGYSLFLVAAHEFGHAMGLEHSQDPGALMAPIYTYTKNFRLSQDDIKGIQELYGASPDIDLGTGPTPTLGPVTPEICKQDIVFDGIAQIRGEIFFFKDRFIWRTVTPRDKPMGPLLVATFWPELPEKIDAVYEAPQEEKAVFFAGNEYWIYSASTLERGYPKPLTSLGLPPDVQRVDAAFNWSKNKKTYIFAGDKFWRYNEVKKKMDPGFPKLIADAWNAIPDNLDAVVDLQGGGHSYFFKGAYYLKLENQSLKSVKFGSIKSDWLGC
As to the kind of experiment: Inhibitory activity against gelatinase A. Type of test: biochemical. The conditions noted are these: progelatinase A from human normal skin dermal fibroblasts (HNDF), activated with APMA; substrate MOCAc-Pro-Leu-Gly-A2pr(Dnp)-Ala-Arg-NH2; 37 °C, 20 minutes; fluorescence Ex 328 nm, Em 393 nm. On the procedure: Progelatinase A (7 µl; in assay buffer (90 µl)) was purified from human normal skin dermal fibroblasts (HNDF). It was activated by addition of 10 mM p-aminophenyl mercuric acetate (APMA) (10 µl) and preincubation at 37 °C for 1 hour. The solution (890 µl; the final concentration was […]) of the synthetic substrates (MOCAc-Pro-Leu-Gly-A2pr(Dnp)-Ala-Arg-NH2) was mixed with various concentrations of the test compound or a solution without it (10 µl) and the mixture was preincubated at 37 °C for 5 minutes. The activated gelaninase A prepared above (7 µl/tube, 100 µl) was added to the reaction mixture and further incubated at 37 °C for 20 minutes. The enzyme reaction was terminated by addition of 0.1 M sodium acetate buffer (2ml; pH 4.0).
The IC50 value was determined by measuring the fluorescent intensity (Ex = 328 nm, and Em = 393 nm) in this solution.
The IC50 is the concentration that gives 50% inhibition. A higher IC50 goes with weaker potency in that assay. As for `O=C(O)[C@@H](Cc1c[nH]c2ccccc12)NS(=O)(=O)c1ccc(C#Cc2ccc(-n3ccnc3)cc2)cc1` [Example 2(18), N-[4-[2-(4-Imidazolylphenyl)ethynyl]phenylsulfonyl]-D-tryptophan], the 50% inhibitory concentration (IC50) stood at 11 nM.

Consider `CCCC#Cc1ccc(S(=O)(=O)N[C@H](C)C(=O)NO)cc1` [Example 6(1), N-Hydroxy-[N-[4-(1-pentynyl)phenylsulfonyl]-D-alanyl]amide], for which the midpoint of inhibition, the IC50, lay at 1.2 nM.

Compound `C#Cc1ccc(S(=O)(=O)N[C@H](CCC(=O)NCCc2ccccc2)C(=O)NO)cc1` [Example 6(17), N-Hydroxy-[N-(4-ethynyl)phenylsulfonyl-N'-(2-phenylethyl)-D-glutaminyl]amide] showed an IC50 of 0.8 nM.

Turning to `Cc1ccc(/C=C/c2ccc(S(=O)(=O)N[C@H](C)C(=O)NO)cc2)cc1` [Example 6(2), N-Hydroxy-[N-[4-[2-(4-methylphenyl)ethenyl]phenylsulfonyl]-D-alanyl]amide], it took 0.2 nM to reach half-maximal inhibition (IC50).

Consider `Cc1ccc(C#Cc2ccc(S(=O)(=O)N[C@H](C)C(=O)O)cc2)cc1` [Example 2(1), N-[4-[2-(4-Methylphenyl)ethynyl]phenylsulfonyl]-D-alanine], for which the IC50 was found to be 13 nM. Against the preceding compound, the IC50 is about 65-fold higher.

For `Cc1ccc(C=Cc2ccc(S(=O)(=O)N[C@H](C)C(=O)O)cc2)cc1` (stereo in doubt) [Example 3(1), N-[4-[2-(4-Methylphenyl)ethenyl]phenylsulfonyl]-D-alanine], inhibition was half-maximal at 6.2 nM (IC50).

`CCCCCC#Cc1ccc(S(=O)(=O)N[C@H](C)C(=O)NO)cc1` [Example 6(11), N-Hydroxy-[N-[4-[4-(1-heptynyl)]phenylsulfonyl]-D-alanyl]amide] displayed an IC50 of 2.4 nM. Compared with the last compound, the IC50 is about 2.6-fold lower.

As for `Cc1ccc(C#Cc2ccc(S(=O)(=O)N(C)[C@H](C)C(=O)NO)cc2)cc1` [Example 10, N-Hydroxy-[N-methyl-N-[4-[2-(4-methylphenyl)ethynyl]phenylsulfonyl]-D-alanyl]amide], the IC50 was 7.5 nM. Compared with the last compound, the IC50 is about 3.1-fold higher.

For the compound `CCCC#Cc1ccc(S(=O)(=O)N(C)[C@H](C)C(=O)NO)cc1` [Example 10(4)], the IC50 worked out at 0.7 nM.

The compound `Cc1ccc(C#Cc2ccc(S(=O)(=O)N[C@H](Cc3c[nH]c4ccccc34)C(=O)O)cc2)cc1` [Example 2(4), N-[4-[2-(4-Methylphenyl)ethynyl]phenylsulfonyl]-D-tryptophan] returned an IC50 of 6.5 nM.

`Cc1ccc(C#Cc2ccc(S(=O)(=O)N[C@H](C)C(=O)NO)cc2)cc1` [Example 6(4), N-Hydroxy-[N-[4-[2-(4-methylphenyl)ethynyl]phenylsulfonyl]-D-alanyl]amide] yielded a half-maximal inhibitory concentration (IC50) of 0.7 nM.

For the compound `C[C@H](C(=O)NO)N(C)S(=O)(=O)c1ccc(C#Cc2ccc(-n3ccnc3)cc2)cc1` [Example 10(3), N-Hydroxy-[N-methyl-N-[4-[2-[4-(1-imidazolyl)phenyl]ethynyl]phenylsulfonyl]-D-alanyl]amide hydrochloride], the IC50 was 0.4 nM.

With `CN(CCc1ccccc1)C(=O)CC[C@@H](NS(=O)(=O)c1ccc(C#Cc2ccc(-n3ccnc3)cc2)cc1)C(=O)O` [Example 2(27), N-[4-[2-(4-Imidazolylphenyl)ethynyl]phenylsulfonyl]-N'-methyl-N'-(2-phenylethyl)-D-glutamine], the IC50 stood at 3.3 nM.

A further test concerns the target T2, collagenase (Homo sapiens, UniProt P03956).
T2 construct: endogenous in cells; host or cells: human normal dermal fibroblasts (HNDF)
T2 sequence (P03956 100-469): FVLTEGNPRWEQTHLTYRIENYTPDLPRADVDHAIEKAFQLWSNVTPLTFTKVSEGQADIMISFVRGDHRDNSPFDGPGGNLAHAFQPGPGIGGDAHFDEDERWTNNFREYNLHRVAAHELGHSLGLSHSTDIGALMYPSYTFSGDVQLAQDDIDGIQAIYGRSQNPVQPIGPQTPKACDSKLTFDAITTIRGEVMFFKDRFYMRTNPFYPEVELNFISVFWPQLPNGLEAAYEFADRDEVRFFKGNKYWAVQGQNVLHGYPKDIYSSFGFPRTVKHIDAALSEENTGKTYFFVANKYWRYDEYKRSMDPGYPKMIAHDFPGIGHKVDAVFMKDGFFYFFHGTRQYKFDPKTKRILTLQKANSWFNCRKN
As to the kind of experiment: Inhibitory activity against collagenase. Format: biochemical. The conditions noted are these: procollagenase from human normal dermal fibroblasts (HNDF), activated with trypsin; substrate Ac-Pro-Leu-Gly-[2-mercapto-4-methyl-pentanoyl]-Leu-Gly-OEt; 26 °C, 10 minutes; absorption at 324 nm. On the procedure: Trypsin (45 µl; 1 mg/ml) was added to a solution of procollagenase (5 µM) purified from human normal dermal fibloblasts (HNDF) in assay buffer (105 µl). The solution was preincubated in order to activate the enzyme at 37°C for 1 minute.
Trypsin was inactivated by addition of soybean trypsin inhibitor (SBTI; 50 µl). Solutions (20 µl) of synthetic substrate (Ac-Pro-Leu-Gly-[2-mercapto-4-methyl-pentanoyl]-Leu-Gly-OEt) (105 µl; the final concentration […]) with or without various concentrations of the test compound were preincubated for 5 minutes at 26 °C.
To the solutions, activated enzyme (75 µl/tube, 50 µl) prepared above was added. The mixtures were incubated at 26 °C for 10 minutes.
Absorption at 324 nm was measured at 40 points during the 10 minutes.
Vmax value was determined as measured value in 30 points therein.
Compound `C#Cc1ccc(S(=O)(=O)N[C@H](CCC(=O)NCCc2ccccc2)C(=O)NO)cc1` [Example 6(17), N-Hydroxy-[N-(4-ethynyl)phenylsulfonyl-N'-(2-phenylethyl)-D-glutaminyl]amide] came in with an IC50 of 63 nM.

For the compound `C#Cc1ccc(S(=O)(=O)N[C@H](CCC(=O)NC(Cc2ccccc2)c2ccccc2)C(=O)NO)cc1` (stereo partly drawn) [Example 6(19), N-Hydroxy-[N-(4-ethynyl)phenylsulfonyl-N'-(1,2-diphenylethyl)-D-glutaminyl]amide], the IC50 is 65 nM.

`CC#Cc1ccc(S(=O)(=O)N(C)[C@H](C)C(=O)NO)cc1` [Example 10(13), N-Hydroxy-[N-methyl-N-[4-(1-propynyl)phenylsulfonyl]-D-alanyl]amide] gave an IC50 of 290 nM.
